Patent publication US20090270350A1, “Pyridinone Pyrazole Urea and Pyrimidinone Pyrazole Urea Derivatives” (PFIZER INC., priority 2006, published 2009)

SMILES | melting point [°C]
COCCNC(=O)c1ccc(C)c(-n2c(C)cc(OCc3ccc(F)cc3CNC(=O)Nc3cc(C(C)(C)C)nn3-c3ccc(Cl)c(O)c3)c(Cl)c2=O)c1 [Example 164, 3-[4-(2-{3-[5-tert-butyl-2-(4-chloro-3-hydroxy-phenyl)-2H-pyrazol-3-yl]-ureidomethyl}-4-fluoro-benzyloxy)-3-chloro-6-methyl-2-oxo-2H-pyridin-1-yl]-N-(2-methoxy-ethyl)-4-methyl-benzamide] | 186 to 187
Cc1ccc(C(=O)NCCN(C)C)cc1-n1c(C)cc(OCc2ccc(F)cc2CNC(=O)Nc2cc(C(C)(C)C)nn2-c2ccc(Cl)c(O)c2)c(Cl)c1=O [Example 166, 3-[4-(2-{3-[5-tert-Butyl-2-(4-chloro-3-hydroxy-phenyl)-2H-pyrazol-3-yl]-ureidomethyl}-4-fluoro-benzyloxy)-3-chloro-6-methyl-2-oxo-2H-pyridin-1-yl]-N-(2-dimethylamino-ethyl)-4-methyl-benzamide] | 177 to 178
Cc1ccc(C(=O)NCC(O)CO)cc1-n1c(C)cc(OCc2ccccc2CNC(=O)Nc2cc(C(C)(C)C)nn2-c2ccc(Cl)c(O)c2)c(Cl)c1=O (centres unmarked) [Example 168, 3-[4-(2-{3-[5-tert-Butyl-2-(4-chloro-3-hydroxy-phenyl)-2H-pyrazol-3-yl]-ureidomethyl}-benzyloxy)-3-chloro-6-methyl-2-oxo-2H-pyridin-1-yl]-N-(2,3-dihydroxy-propyl)-4-methyl-benzamide] | 169 to 171
CNC(=O)c1ccc(C)c(-n2c(C)cc(OCc3ccc(F)cc3CNC(=O)Nc3cc(C(C)(C)C)nn3-c3ccc(O)c(Cl)c3)c(Cl)c2=O)c1 [Example 169, 3-[4-(2-{3-[5-tert-butyl-2-(3-chloro-4-hydroxy-phenyl)-2H-pyrazol-3-yl]-ureidomethyl}-4-fluoro-benzyloxy)-3-chloro-6-methyl-2-oxo-2H-pyridin-1-yl]-4,N-dimethyl-benzamide] | 177 to 180

More lines, now with the values ahead:

melting point [°C] | SMILES
185 to 186 | Cc1ccc(C(=O)NCCN(C)C)cc1-n1c(C)cc(OCc2ccccc2CNC(=O)Nc2cc(C(C)(C)C)nn2-c2ccc(Cl)c(O)c2)c(Cl)c1=O [Example 165, 3-[4-(2-{3-[5-tert-butyl-2-(4-chloro-3-hydroxy-phenyl)-2H-pyrazol-3-yl]-ureidomethyl}-benzyloxy)-3-chloro-6-methyl-2-oxo-2H-pyridin-1-yl]-N-(2-dimethylamino-ethyl)-4-methyl-benzamide]
143 to 145 | COCCNC(=O)c1ccc(C)c(-n2c(C)cc(OCc3ccccc3CNC(=O)Nc3cc(C(C)(C)C)nn3-c3cccc(OCCO)c3)c(Cl)c2=O)c1 [Example 173]
164 to 165 | Cc1ccc(C(=O)NCCN(C)C)cc1-n1c(C)cc(OCc2ccccc2CNC(=O)Nc2cc(C(C)(C)C)nn2-c2cccc(OCCO)c2)c(Cl)c1=O [Example 174]
180 to 181 | Cc1ccc(C(=O)OCCO)cc1-n1c(C)cc(OCc2ccc(F)cc2CNC(=O)Nc2cc(C(C)(C)C)nn2-c2cccc(OCCO)c2)c(Cl)c1=O [Example 180, 3-{4-[2-(3-{5-tert-butyl-2-[3-(2-hydroxy-ethoxy)-phenyl]-2H-pyrazol-3-yl}-ureidomethyl)-4-fluoro-benzyloxy]-3-chloro-6-methyl-2-oxo-2H-pyridin-1-yl}-4-methyl-benzoic acid 2-hydroxy-ethyl ester]
